Assay results reported in patent US20260109712A1, “RIFAMYCINS FOR NONTUBERCULOUS MYCOBACTERIA” (priority 2022, published 2026).
In brackets after ≈: the same amount, converted by molar mass.

Columns and labels:
Assay type in all cases: cell-based, Mycobacterium abscessus
M. abscessus Bamboo [1] = experiment: Caseum surrogate MBC90 (cMBC90) kill assay
Excerpt: (§1) The surrogate matrix was generated as described previously from cultured THP-1 cells (ATCC TIB-202) (mBio, 2023, 14, e0059823). M. abscessus exponential cultures grown in Middlebrook 7H9 broth (Sigma Aldrich) (OD600 0.6-0.9) were spun down and resuspended in water to an OD600 of 7, 0.7, and 0.07. As described for the M. tuberculosis caseum surrogate assay (mnBio, 2023, 14, e0059823), the bacterial suspensions (at three different dilutions resulting in ˜10^9, 10^8, and 10^7 starting CFU/mL, represented by circle, square, and triangle indicators respectively) were added to the caseum surrogate in the ratio 2:1 (vol/wt), briefly homogenized with 1.4-mm zirconia beads, divided evenly into nine 1.5-mL microcentrifuge tubes, and incubated as standing cultures at 37° C. At the indicated time points, tubes were removed and used for CFU enumeration by plating on Middlebrook 7H11 agar (Sigma Aldrich). Separate tubes were used at each time point. To determine the kill curves, cultures with a starting CFU/mL of 10^8 were used (resulting in the middle curve with square indicators). Arrows indicate the time points when drugs were added and the end of the treatment. The experiment was repeated three times independently, yielding similar results. A representative example is shown. Dots and error bars represent means and standard deviations of three technical replicates, respectively.
FIGS. 29A-29M show the Dose-response kill curves against M. abscessus Bamboo in caseum surrogate. M. abscessus cultures were set up as described in the legend of FIG. 28. Bacterial cell suspensions were added to yield a starting CFU of 10^8/mL (FIG. 28, middle growth curve with square indicators). […] The shaded areas indicate drug concentration windows achieved in caseum in vivo. (Antimicrob. Agents Chemother., 2021, 65, e0050621; Antimicrob. Agents Chemother., 2022, 66, e0221221; PLoS Med., 2019, 16, e1002773; ACS Infect. Dis., 2016, 2, 251-267). The experiment was repeated twice independently, yielding similar results. A representative example is shown. Dots and error bars represent means and standard deviations of three technical replicates, respectively. Horizontal dotted lines indicate the cutoff for 1 log reduction in CFU compared to 10-day drug-free control culture. The cMBC90 values shown in Table 16 are the drug concentrations that reduce CFU by 90% relative to the CFU of drug-free controls at day 10. Since the cultures were in the stationary phase on day 5 when drug treatment started, the CFUs of the drug-free cultures at day 10 were similar to the CFUs of the drug-free cultures at day 5 (FIG. 28).
as §1, with “(doi: 10.1128/mbio.00598-23).” for “(mBio, 2023, 14, e0059823).”, “(doi: 10.1128/mbio.00598-23),” for “(mnBio, 2023, 14, e0059823),”, “CFU/mL)” for “CFU/mL, represented by circle, square, and triangle indicators respectively)”, “curves for the drugs,” for “curves,”, “used.” for “used (resulting in the middle curve with square indicators). Arrows indicate the time points when drugs were added and the end of the treatment.”, “results.” for “results. A representative example is shown. Dots and error bars represent means and standard deviations of three technical replicates, respectively.”
The experiment was repeated twice independently, yielding similar results. A representative example is shown. The cMBC90 values shown in Table 16 are the drug concentrations that reduce CFU by 90% relative to the CFU of drug-free controls at day 10. […]

Δarr M. abscessus = experiment: MIC assay, isogenic arr-deleted strain; conditions: arr-deleted strain; 90% growth inhibition
Procedure, shortened: (§2)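 Two-fold, ten-point dilutions in 7H9 with 2% DMSO; mid-log culture diluted to OD600=0.1 (1×10^7 CFU/mL). Incubated 3 days at 37 °C, shaking 110 RPM; growth = Day 3 minus Day 0 OD600, expressed as percentage of drug-free growth and plotted against concentration. Two biological replicates.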

RFB-R1 M. abscessus = experiment: microbe, parasite or virus in culture
[2] = test system: M. abscessus subsp. abscessus K21; experiment: MIC assay, clinical isolate K21; conditions: 90% inhibition of bacterial growth
M. abscessus Bamboo [3] = experiment: Broth MBC90 (bMBC90); conditions: broth, 5 days
Excerpt: Broth MIC, broth MBC90 (bMBC90), and caseum surrogate MBC90 ([…]) of clinically used antibiotics and of novel ADP-ribosylation-resistant rifabutin analogs against M. abscessus Bamboo have been evaluated.

M. abscessus Bamboo [4] = experiment: MIC assay, clinical isolate Bamboo
M. abscessus ATCC 19977 = experiment: MIC assay in 96-well plate format, wild-type strain
Procedure, shortened: as §2

[5] = 90% inhibition of bacterial growth

CO[C@H]1/C=C/O[C@@]2(C)Oc3c(C)c(O)c4c(c3C2=O)C2=NC3(CCN(CC(C)C)CC3)NC2=C(NC(=O)/C(C)=C/C=C/[C@H](C)[C@H](O)[C@@H](C)[C@@H](O)[C@@H](C)[C@H](OC(=O)c2ccccc2)[C@@H]1C)C4=O [5a, 25-O-benzoyl rifabutin]
cMBC90/bMBC90 (M. abscessus Bamboo [1]; 5-day assays): 26.7 | MBC (M. abscessus Bamboo [1]; caseum surrogate, 5 days, 90% CFU reduction vs drug-free control, read-out: cMBC90): 8 µM (≈ 7.27 µg/mL) | Δarr Mab MIC (Δarr M. abscessus): 0.06 µM | activity against rifamycin-resistant mutant RFB-R1 (RFB-R1 M. abscessus; RNAP point mutation): lost detectable activity | RFB-R1 M. abscessus MIC (RFB-R1 M. abscessus; rpoB H447Y mutant, 90% inhibition): >100 µM | Mab K21 MIC [2]: 0.098 µM | MBC (M. abscessus Bamboo [3]): 0.30 µM (≈ 0.273 µg/mL) | Mab Bamboo MIC (M. abscessus Bamboo [4]; [5]): 0.065 µM | MIC (M. abscessus Bamboo [4]; broth, M. abscessus Bamboo, Table 16, read-out: MIC): 0.07 µM (≈ 0.0636 µg/mL) | Mab 19977 MIC (M. abscessus ATCC 19977; [5]): 0.053 µM | MIC (M. abscessus ATCC 19977; M. abscessus ATCC 19977, 90% growth inhibition, read-out: WT Mab MIC): 0.053 µM (≈ 0.0482 µg/mL) | MIC ratio (M. abscessus ATCC 19977; WT MIC/Δarr strain MIC): 0.9
